# Results published in patent US20140303164A1, “THERAPEUTIC COMPOUNDS” (Gilead Sciences, Inc., priority 2013, published 2014).
# Assays:
# [1] = system: uninfected MT-4 cells; test: Test B: Cytotoxicity Assay; type: cell-based; conditions: same protocol as Test A, 5 days
# In short: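 Uninfected MT-4 cells (2000 per well) incubated with diluted compound at 37° C. for 5 days, following the antiviral protocol without HIV-IIIb.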
# [2] = system: HIV-IIIb; test: Test A: Antiviral Assay in MT4 Cells; type: cell-based, HIV-1; conditions: from dose response curve, MT-4 cells, HIV-IIIb, 5 days, values above 100 normalized to 100; for % inhibition at 0.2 μM: percent inhibition of virus-induced cell killing at 0.2 μM drug concentration; for % inhibition at 2 μM: percent inhibition of virus-induced cell killing at 2 μM drug concentration
# Description: Test A: Antiviral Assay in MT4 Cells
# MT-4 cells were next mixed with HIV-IIIb at an m.o.i of 0.003 for 1 hour, after which time 35 μL of virus/cell mixture (2000 cells) was immediately added to each well containing 40 μL of diluted compound. The plates were then incubated at 37° C. for 5 days. […] Cell lysis was carried out by incubating at room temperature for 10 min and then chemiluminescence was read.
Structure (SMILES),CC50 [1],% inhibition at 0.2 μM [2],% inhibition at 2 μM [2]
"COc1cc(-c2ccc(Cl)c3c(NS(C)(=O)=O)nn(C)c23)c([C@H](Cc2cc(F)cc(F)c2)NC(=O)Cn2nc(C(F)(F)F)c3c2C(F)(F)[C@@H]2C[C@H]32)nc1C#CC(C)(C)O [Compound 135B, N—((S)-1-(3-(4-chloro-1-methyl-3-(methylsulfonamido)-1H-indazol-7-yl)-6-(3-hydroxy-3-methylbut-1-yn-1-yl)-5-methoxypyridin-2-yl)-2-(3,5-difluorophenyl)ethyl)-2-((3b-S,4aR)-5,5-difluoro-3-(trifluoromethyl)-3b,4,4a,5-tetrahydro-1H-cyclopropa[3,4]cyclopenta[1,2-c]pyrazol-1-yl)acetamide]",14.2 µM,93%,93%
"Cn1cc(-c2ccc(-c3ccc(Cl)c4c(NS(C)(=O)=O)nn(C)c34)c([C@H](Cc3cc(F)cc(F)c3)NC(=O)Cn3nc(C(F)(F)F)c4c3C(F)(F)[C@@H]3C[C@H]43)n2)cn1 [Compound 173, N—((S)-1-(3-(4-chloro-1-methyl-3-(methylsulfonamido)-1H-indazol-7-yl)-6-(1-methyl-1H-pyrazol-4-yl)pyridin-2-yl)-2-(3,5-difluorophenyl)ethyl)-2-((3b-S,4aR)-5,5-difluoro-3-(trifluoromethyl)-3b,4,4a,5-tetrahydro-1H-cyclopropa[3,4]cyclopenta[1,2-c]pyrazol-1-yl)acetamide]",> 43.7 µM,92%,92%
